In PubChem BioAssay (NCI) one finds GI50 and TGI data, which are given here for 16 molecules.

Some test systems named below: SK-OV-3 ovarian; HS 578T breast; CCRF-CEM leukemia; 786-0 renal; COLO 205 colon; BT-549 breast; SF-539 CNS; EKVX NSCLC.
Holding throughout (experiment): DTP human tumour cell line panel, 48 h

Each structure is given as a SMILES string.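 Test compounds were applied to cells in 96-well plates for 48 hours at 5 doses. GI50 is the concentration that inhibits growth by half. TGI denotes the concentration required for complete inhibition of growth.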

Turning to `COc1ccc(C2c3ccc4ccccc4c3Oc3ncn(CCCn4ccnc4)c(=N)c32)cc1OC` (stereo unspecified), the GI50 is 5.8 µM with SK-OV-3 ovarian; 2.26 µM with HS 578T breast; 2.52 µM with CCRF-CEM leukemia; 3.1 µM in the assay with 786-0 renal; 2.04 µM in the assay with COLO 205 colon; 3.41 µM in the assay with BT-549 breast. Further, in the assay on SF-539 CNS, the GI50 was 1.74 µM. Further, the concentration for total growth inhibition (TGI) in the assay with SK-OV-3 ovarian is 18.4 µM; in the assay with HS 578T breast, 7.46 µM; in the assay with CCRF-CEM leukemia it was 6.9 µM; in the assay on 786-0 renal it was 11 µM; in the assay with COLO 205 colon, 4.51 µM; with BT-549 breast, 13.5 µM. This molecule also registered a TGI in the assay with SF-539 CNS of 3.28 µM.

On to `CCNCC(=O)Nc1ccc2c(c1)C(=O)c1ccc(NC(=O)CNCC)cc1C2=O`, for which the total growth inhibition concentration (TGI) with SK-OV-3 ovarian was 9.48 µM; with HS 578T breast it was 22.1 µM; in the assay with CCRF-CEM leukemia, more than 100 µM; in the assay with 786-0 renal, 7.92 µM; in the assay on EKVX NSCLC, 20.5 µM; in the assay with COLO 205 colon, 3.69 µM. In addition, in the assay with SF-539 CNS, the TGI stood at 16.2 µM.

Turning to `N#Cc1c(N)nc2c(c1-c1ccc(Cl)cc1)COc1ccc(F)cc1-2`, the GI50 in the assay with SK-OV-3 ovarian is more than 100 µM; in the assay with CCRF-CEM leukemia it was 44.2 µM; in the assay with 786-0 renal it was 28.7 µM; with EKVX NSCLC it was 22 µM; in the assay on BT-549 breast it was 22 µM; with SF-539 CNS it was 20.1 µM. The TGI in the assay with SK-OV-3 ovarian is more than 100 µM; in the assay with CCRF-CEM leukemia it was more than 100 µM; in the assay on 786-0 renal, 72.8 µM; with EKVX NSCLC, 63.3 µM; in the assay on BT-549 breast, 51.2 µM; in the assay on SF-539 CNS, 40.1 µM.

For `Clc1cc(Br)ccc1-c1ccc(CNCC2CCNCC2)o1`, the GI50 with SK-OV-3 ovarian was 1.99 µM; in the assay with HS 578T breast, 1.91 µM; in the assay with CCRF-CEM leukemia, 1.58 µM; with 786-0 renal it was 1.55 µM; in the assay with COLO 205 colon, 1.89 µM; in the assay with BT-549 breast it was 1.73 µM. The GI50 in the assay on SF-539 CNS was 1.65 µM. Moreover, the TGI was determined as 3.86 µM in the assay on SK-OV-3 ovarian; 4.37 µM in the assay with HS 578T breast; 3.54 µM with CCRF-CEM leukemia; 3.06 µM in the assay with 786-0 renal; 3.51 µM with COLO 205 colon; 3.5 µM with BT-549 breast. The TGI in the assay with SF-539 CNS stood at 3.17 µM.

Turning to `COC(=O)[C@H](Cc1cn(C)cn1)NC(=O)[C@H](CC(C)C)NC(=O)Nc1cc(C(F)(F)F)cc(C(F)(F)F)c1`, the GI50 in the assay with SK-OV-3 ovarian, with HS 578T breast, in the assay on 786-0 renal, in the assay with COLO 205 colon, in the assay with BT-549 breast and in the assay on SF-539 CNS was more than 10 µM in each case. In addition, the TGI in the assay on SK-OV-3 ovarian, in the assay on HS 578T breast, with 786-0 renal, in the assay with COLO 205 colon, in the assay on BT-549 breast and with SF-539 CNS was more than 10 µM throughout.

Turning to `CCOC(=O)Cc1csc(NC(=O)C(OC(=O)c2ccc(Cl)cc2)c2ccccc2)n1` (stereo unspecified), the GI50 is more than 100 µM with SK-OV-3 ovarian; 54.8 µM in the assay on HS 578T breast; 42.8 µM with 786-0 renal; 59.6 µM in the assay on EKVX NSCLC; 38.3 µM in the assay with COLO 205 colon; 25.9 µM in the assay with BT-549 breast. Besides, the GI50 with SF-539 CNS was 25.3 µM. Moreover, the TGI was more than 100 µM in the assay with SK-OV-3 ovarian; more than 100 µM in the assay on HS 578T breast; more than 100 µM in the assay with 786-0 renal; more than 100 µM with EKVX NSCLC; more than 100 µM in the assay with COLO 205 colon; 56.9 µM with BT-549 breast. The total growth inhibition concentration (TGI) in the assay on SF-539 CNS was found to be 54.8 µM.

On to `COc1cc(CSc2nc3ccc(Cl)cc3c(=O)n2Cc2ccccc2)cc(OC)c1OC`, for which the GI50 was 3.23 µM with SK-OV-3 ovarian; 1.63 µM in the assay with HS 578T breast; 3.6 µM with CCRF-CEM leukemia; 7.62 µM in the assay with 786-0 renal; 1.56 µM with COLO 205 colon; 6.19 µM in the assay on BT-549 breast. Also, the GI50 in the assay on SF-539 CNS was 2.57 µM. The TGI in the assay on SK-OV-3 ovarian is 17.7 µM; in the assay with HS 578T breast, 14.5 µM; in the assay with CCRF-CEM leukemia, more than 100 µM; with 786-0 renal, 41.3 µM; in the assay on COLO 205 colon it was 4.05 µM; in the assay on BT-549 breast it was 90.6 µM. This molecule registered a TGI in the assay on SF-539 CNS of 9.34 µM.

As to `COc1ccc(O)c(/C=N\Nc2ccccc2)c1`, the TGI is more than 100 µM in the assay on SK-OV-3 ovarian; more than 100 µM with HS 578T breast; more than 100 µM in the assay on 786-0 renal; more than 100 µM in the assay on EKVX NSCLC; 26.2 µM in the assay on COLO 205 colon; more than 100 µM in the assay on BT-549 breast. Besides, in the assay with SF-539 CNS, the TGI is 68.4 µM.

With `COc1cc2c3c(n(CCCN=[N+]=[N-])c(=O)c2cc1OC)-c1ccccc1C3=O`, the GI50 is more than 100 µM in the assay with SK-OV-3 ovarian; 3.37 µM in the assay with CCRF-CEM leukemia; 4.68 µM in the assay on 786-0 renal; more than 100 µM in the assay on EKVX NSCLC; 24.4 µM in the assay with BT-549 breast; 4.73 µM in the assay with SF-539 CNS. Besides, the TGI is more than 100 µM in the assay on SK-OV-3 ovarian; more than 100 µM with CCRF-CEM leukemia; 69.2 µM with 786-0 renal; more than 100 µM in the assay on EKVX NSCLC; more than 100 µM in the assay with BT-549 breast; 22.8 µM in the assay with SF-539 CNS.

In the case of `COc1ccc(C)c2sc(N(Cc3cccnc3)C(=O)c3ccc(C#N)cc3)nc12`, the GI50 is more than 100 µM in the assay on SK-OV-3 ovarian; 50.2 µM in the assay on HS 578T breast; 36.6 µM in the assay on CCRF-CEM leukemia; 56.8 µM in the assay with 786-0 renal; 24.7 µM in the assay on COLO 205 colon; 35 µM in the assay with BT-549 breast. In the assay on SF-539 CNS, the GI50 is 55.6 µM. Moreover, the concentration for total growth inhibition (TGI) was more than 100 µM in the assay on SK-OV-3 ovarian; more than 100 µM in the assay with HS 578T breast; more than 100 µM with CCRF-CEM leukemia; more than 100 µM in the assay on 786-0 renal; 70 µM in the assay with COLO 205 colon; more than 100 µM with BT-549 breast. The molecule also returned a TGI in the assay on SF-539 CNS of more than 100 µM.

As to `O=C1OC2(c3ccc(O)cc3Oc3cc(O)ccc32)c2cccc3cccc1c23`, the GI50 with SK-OV-3 ovarian was 34 µM; in the assay with HS 578T breast, 22.2 µM; in the assay on CCRF-CEM leukemia, 26.5 µM; with 786-0 renal it was 27 µM; with COLO 205 colon, 17.2 µM; in the assay with BT-549 breast, 21.6 µM. Also, in the assay on SF-539 CNS, the GI50 was 18.7 µM. Further, the total growth inhibition concentration (TGI) in the assay on SK-OV-3 ovarian is more than 100 µM; with HS 578T breast it was more than 100 µM; in the assay on CCRF-CEM leukemia, more than 100 µM; with 786-0 renal it was 81.3 µM; with COLO 205 colon it was 33.2 µM; in the assay on BT-549 breast it was 62.7 µM. In the assay on SF-539 CNS, this molecule registered a total growth inhibition concentration (TGI) of 43.4 µM.

`Cc1ccc(-c2cc(C(=O)Nc3ccc(S(=O)(=O)N4CCCCC4)cc3)[nH]n2)c(O)c1`: the GI50 with SK-OV-3 ovarian is more than 100 µM; in the assay with HS 578T breast, more than 100 µM; in the assay on CCRF-CEM leukemia, 59.6 µM; with 786-0 renal, more than 100 µM; in the assay with COLO 205 colon it was more than 100 µM; in the assay on BT-549 breast, more than 100 µM. In addition, the GI50 with SF-539 CNS is more than 100 µM. In addition, the TGI in the assay on SK-OV-3 ovarian, with HS 578T breast, in the assay on CCRF-CEM leukemia, in the assay on 786-0 renal, in the assay on COLO 205 colon and in the assay with BT-549 breast was more than 100 µM in each case. The molecule also gave a TGI in the assay with SF-539 CNS of more than 100 µM.

On to `Cc1cc(-c2nc3sc(C)cn3c2/C=N/N=C(N)N)c(C)s1`, for which the GI50 in the assay with SK-OV-3 ovarian was 20.9 µM; with CCRF-CEM leukemia, 2.49 µM; with 786-0 renal it was 8.68 µM; in the assay on EKVX NSCLC, 14.8 µM; with COLO 205 colon, 4.76 µM. The TGI in the assay with SK-OV-3 ovarian came to 39.1 µM; with CCRF-CEM leukemia, 5.06 µM; with 786-0 renal, 21.1 µM; in the assay with EKVX NSCLC it was 30.6 µM; with COLO 205 colon it was 19 µM.

In the case of `COC(=O)CCc1n(Cc2ccc3ccccc3c2)c2ccccc2[n+]1Cc1ccc2ccccc2c1`, the GI50 was 1.89 µM in the assay on SK-OV-3 ovarian; 1.43 µM in the assay on HS 578T breast; 1.14 µM in the assay on 786-0 renal; 1.63 µM in the assay on EKVX NSCLC; 0.614 µM in the assay with COLO 205 colon; 1.07 µM in the assay on SF-539 CNS. The concentration for total growth inhibition (TGI) in the assay on SK-OV-3 ovarian came out at 4.85 µM; in the assay with HS 578T breast, 3.47 µM; in the assay with 786-0 renal, 2.45 µM; in the assay with EKVX NSCLC, 5.63 µM; in the assay with COLO 205 colon it was 2.21 µM; with SF-539 CNS it was 2.45 µM.

For the molecule `O=Cc1ccc(-c2ccc(-c3nc4ccccc4s3)cc2)o1`, the GI50 in the assay with SK-OV-3 ovarian, with HS 578T breast, in the assay on 786-0 renal, in the assay on EKVX NSCLC, with COLO 205 colon and with BT-549 breast was more than 100 µM each time. In addition, the total growth inhibition concentration (TGI) with SK-OV-3 ovarian, with HS 578T breast, with 786-0 renal, in the assay with EKVX NSCLC, with COLO 205 colon and in the assay with BT-549 breast was more than 100 µM in each case.

`Clc1ccc(-c2cnc3c(-c4ccnc(N5CCNCC5)c4)cnn3c2)cc1`: the GI50 with SK-OV-3 ovarian is 2.72 µM; in the assay on CCRF-CEM leukemia, 2.07 µM; in the assay with 786-0 renal, 1.83 µM; with EKVX NSCLC, 1.83 µM; with COLO 205 colon, 2.14 µM; in the assay with BT-549 breast, 1.6 µM. The GI50 in the assay with SF-539 CNS was 1.74 µM. For the same molecule, the TGI worked out at 5.63 µM in the assay with SK-OV-3 ovarian; 5.13 µM in the assay with CCRF-CEM leukemia; 3.22 µM in the assay with 786-0 renal; 3.5 µM with EKVX NSCLC; 3.77 µM in the assay with COLO 205 colon; 3.02 µM in the assay on BT-549 breast. Besides, the TGI in the assay with SF-539 CNS came out at 3.29 µM.
